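Five compound concentrations were applied to cells in 96-well plates for 48 hours; endpoints were derived by simple linear interpolation of the resulting dose-response curve. GI50 is the concentration that inhibits growth by half.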 Active and inactive are the calls of the source. Cut-off read from the data, not from the text of the source: active = GI50 up to about 1.1 µM and inactive = higher. Residues, ends and D or L forms follow the SMILES beside them. Groups on a side chain read outwards from the residue. *: point of attachment. Cbz = O=C(OCc1ccccc1)*; Boc = CC(C)(C)OC(=O)*
Assays:
Assay in all cases: NCI-60 cell line screen, 48 h
786-0 = tested on: 786-0
A549 = tested on: A549
COLO 205 = tested on: COLO 205
HL-60 = tested on: HL-60
HOP-62 = tested on: HOP-62
IGROV-1 = tested on: IGROV-1
K562 = tested on: K562
Malme-3M = tested on: Malme-3M
NCI-H226 = tested on: NCI-H226
NCI-H23 = tested on: NCI-H23
OVCAR-8 = tested on: OVCAR-8
SF-268 = tested on: SF-268
SF-539 = tested on: SF-539
SK-MEL-2 = tested on: SK-MEL-2
SN12C = tested on: SN12C
U-251 = tested on: U-251
UACC-62 = tested on: UACC-62
SK-OV-3 = tested on: SK-OV-3
SNB-75 = tested on: SNB-75

Measured: GI50

CN1C(=O)C2CCC(=O)N2c2cccnc21 (centres undefined)
inactive: 786-0 > 100 µM | A549 > 100 µM | COLO 205 > 100 µM | HL-60 > 100 µM | HOP-62 > 100 µM | IGROV-1 > 100 µM | K562 > 100 µM | Malme-3M > 100 µM | NCI-H226 > 100 µM | NCI-H23 > 100 µM | OVCAR-8 > 100 µM | SF-268 > 100 µM | SF-539 > 100 µM | SK-MEL-2 > 100 µM | SN12C > 100 µM | U-251 > 100 µM | UACC-62 > 100 µM

O=c1[nH]c(=O)n(C2CC(O)C(CO)O2)cc1OC/C=C/Cc1ccccc1 (centres undefined)
inactive: 786-0 > 100 µM | A549 > 100 µM | COLO 205 > 100 µM | HL-60 > 100 µM | HOP-62 > 100 µM | IGROV-1 > 100 µM | K562 > 100 µM | Malme-3M > 100 µM | NCI-H226 > 100 µM | NCI-H23 > 100 µM | OVCAR-8 > 100 µM | SF-268 > 100 µM | SK-OV-3 > 100 µM | SN12C > 100 µM | SNB-75 > 100 µM | U-251 > 100 µM | UACC-62 > 100 µM

COC(=O)c1cc(-c2c[nH]cc2C(=O)OCc2ccccc2)cn1S(=O)(=O)c1ccc(C)cc1
inactive: 786-0 > 100 µM | A549 > 100 µM | COLO 205 > 100 µM | HOP-62 > 100 µM | IGROV-1 > 100 µM | K562 7.5 µM | Malme-3M > 100 µM | NCI-H23 6.61 µM | OVCAR-8 > 100 µM | SF-268 > 100 µM | SF-539 > 100 µM | SK-MEL-2 > 100 µM | SK-OV-3 > 100 µM | SN12C > 100 µM | SNB-75 > 100 µM | U-251 > 10 µM | UACC-62 > 100 µM

O=c1nc2sc3ccc4ccccc4c3n2nc1O
inactive: 786-0 > 10 µM | A549 > 100 µM | COLO 205 62.4 µM | HL-60 > 100 µM | HOP-62 23.8 µM | IGROV-1 67 µM | K562 44.5 µM | NCI-H226 30.5 µM | NCI-H23 71.1 µM | OVCAR-8 94.6 µM | SF-268 40.4 µM | SF-539 > 100 µM | SK-OV-3 > 100 µM | SN12C 86.5 µM | SNB-75 41.1 µM | U-251 25.2 µM | UACC-62 46.7 µM

O=C1c2ccccc2C(=O)c2c(NC(=O)C3CC3)ccc(NC(=O)C3CC3)c21
inactive: 786-0 61.7 µM | A549 > 100 µM | COLO 205 > 100 µM | HL-60 95.7 µM | HOP-62 > 100 µM | IGROV-1 > 100 µM | K562 > 100 µM | Malme-3M 61.2 µM | NCI-H23 > 100 µM | OVCAR-8 > 100 µM | SF-539 > 100 µM | SK-MEL-2 > 100 µM | SN12C > 100 µM | U-251 91.2 µM | UACC-62 26.9 µM

CC(C)CC(NC(=O)OCc1ccccc1)C(=O)NCCCCC(NC(=O)C(CCCCNC(=O)C(CC(C)C)NC(=O)OCc1ccccc1)NC(=O)C(CCCCNC(=O)C(CC(C)C)NC(=O)OCc1ccccc1)NC(=O)C(CCCCNC(=O)C(CC(C)C)NC(=O)OCc1ccccc1)NC(=O)OC(C)(C)C)C(=O)O (centres undefined) (Boc-K([Leu-Cbz])K([Leu-Cbz])K([Leu-Cbz])K([Leu-Cbz])-OH; configuration not given here)
inactive: 786-0 > 25 µM | A549 > 25 µM | HL-60 > 25 µM | HOP-62 > 25 µM | IGROV-1 > 25 µM | K562 > 25 µM | Malme-3M > 25 µM | NCI-H226 > 25 µM | NCI-H23 > 25 µM | OVCAR-8 > 25 µM | SF-268 > 25 µM | SK-MEL-2 > 25 µM | SN12C > 25 µM | SNB-75 > 25 µM | U-251 > 25 µM | UACC-62 > 25 µM

Reference: ChEMBL document CHEMBL1201862, “PubChem BioAssay data set” (2004)
